Key:
Format in all cases: cell-based
[1] = Cellular toxicity assay in Vero cells; settings: African green monkey, read-out: Cytotoxicity
Outline: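 Cytotox IC50 from conc-response curve, median effective method. Cycloheximide = positive ctrl; untreated cells + solvent = negative ctrl.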

[2] = test system: HepG2 cells; assay: Lactic acid production in HepG2 cells; settings: 14-day assay
Protocol: To measure the effects of the compounds on lactic acid production, HepG2 cells from a stock culture were diluted and plated in 12-well culture plates at 2.5×10^4 cells per well. Various concentrations (0 μM, 0.1 μM, 1 μM, 10 μM and 100 μM) of compound were added, and the cultures were incubated at 37° C. in a humidified 5% CO2 atmosphere for 4 days. At day 4, the number of cells in each well was determined and the culture medium collected. The culture medium was then filtered, and the lactic acid content in the medium was determined using a colorimetric lactic acid assay (Sigma-Aldrich). Since lactic acid product can be considered a marker for impaired mitochondrial function, elevated levels of lactic acid production detected in cells grown in the presence of test compounds would indicate a drug-induced cytotoxic effect.
The effect of compounds 7 and 9 on the levels of mitochondrial and nuclear DNA, and lactic acid production was evaluated in HepG2 cells (14-day assay), and the data is tabulated below in Table 2: […]

[3] = test system: mitochondrial DNA (COXII gene) in HepG2 cells; assay: Mitochondrial toxicity assay in HepG2 cells: mitochondrial DNA; settings: for MtDNA (% of control): human, 14 day
[4] = Homo sapiens, HepG2, 336 h, read-out: % inhibition MtDNA

C#CCNC(=O)C(=O)c1c(C)c(C(=O)Nc2ccc(F)c(F)c2)n(C)c1C [Compound 7a, 4-[(Propargylamino)(oxo)acetyl]-N-(3,4-difluorophenyl)-1,3,5-trimethyl-1H-pyrrole-2-carboxamide]
CC50 [1]: > 90 µM | Lactic acid production (% of control) ([2]; 10 μM): 103 ± 32.0 % of control | Lactic acid production (% of control) ([2]; 25 μM): 106 ± 19.5 % of control | Lactic acid production (% of control) ([2]; 50 μM): 193 ± 12.6 % of control | inhibition at 25 µM [3, 4]: < 1% | inhibition at 50 µM [3, 4]: 17.7% | MtDNA (% of control) ([3]; 25 μM): 91.8 (80.2-105) % of control | MtDNA (% of control) ([3]; 50 μM): 94.6 (73.8-121) % of control

From US10752584B2 (EMORY UNIVERSITY, priority 2016, dated 2020)
